Broadly, the IC50 is the concentration needed to halve the response being measured. Low readings indicate greater potency, high ones weaker potency. For orientation: melting point means the temperature, or range, at which the solid turns liquid.

This passage reports IC50 and melting point results from patent publication US6579883B1, “Fluorinated 3,4-dihydroquinoline derivatives used as NOS inhibitors” (Schering Aktiengesellschaft, priority 1998, dated 2003).

One series has as its target bNOS (Homo sapiens, UniProt P29475). Put plainly: bNOS inhibition (method of Bredt and Snyder). In kind it is biochemical. As to conditions: Proc. Natl. Acad. Sci. USA (1989) 86, 9030-9033. The text has this: The NOS-inhibitory action of the compounds of Formula (I) and their physiologically compatible salts can be determined according to the methods by Bredt and Snyder in Proc. Natl. Acad. Sci. USA (1989) 86, 9030-9033.

Take `NC1=Nc2c(F)cccc2C2CCCC12F` (centres unmarked) [Example 2, 4-amino-3a,6-difluoro-2,3,3a,9b-tetrahydro-1H-cyclopenta[c]quinoline]: it took 590 nM to reach half-maximal inhibition against bNOS (IC50).

Turning to `NC1=Nc2ccc(Br)cc2C2CCCC12F` (centres unmarked) [Example 3, 4-Amino-8-bromo-3a-fluoro-2,3,3a,9b-tetrahydro-1H-cyclopenta[c]quinoline], the melting point is 220 °C.
